Measured values: ChEMBL document CHEMBL1158845, “Antineoplastic agents. 386. Isolation of sesterstatins 1-3 from the marine sponge Hyrtios erecta” (1998)
≈ marks a conversion by molar mass, not a printed value. Calls of active or inactive are those of the source. No cut-off for these calls is given here.

How the values were obtained:
P388 = experiment: Cytotoxicity against mouse P388 cells; assay type: functional; conditions: read-out: ED50 (the source's name)
Staphylococcus aureus [1] = experiment: Antibacterial activity against Staphylococcus aureus by disk susceptibility test; assay type: functional
Micrococcus luteus = experiment: Antibacterial activity against Micrococcus luteus at 100 ug/disk by disk susceptibility test; assay type: functional, organism-based
Neisseria gonorrhoeae = experiment: Antibacterial activity against Neisseria gonorrhoeae at 100 ug/disk by disk susceptibility test; assay type: functional, organism-based
Cryptococcus neoformans = experiment: Antimicrobial activity against Cryptococcus neoformans at 100 ug/disk by disk susceptibility test; assay type: functional, organism-based
Staphylococcus aureus [2] = experiment: Antibacterial activity against Staphylococcus aureus at 100 ug/disk by disk susceptibility test; assay type: functional, organism-based

SMILES | EC50 (P388) | MIC (Staphylococcus aureus [1]) | Activity (Micrococcus luteus) | Activity (Neisseria gonorrhoeae) | Activity (Cryptococcus neoformans) | Activity (Staphylococcus aureus [2])
C[C@]1(CO)CCC[C@]2(C)[C@H]3C[C@@H](O)[C@]4(C)C5=C(CC[C@H]4[C@]3(C)CC[C@@H]12)COC5=O [SESTERSTATIN 2] | 4.2 µg/mL (≈ 10.4 µM) | 50 µg | inactive | inactive | inactive | 
C[C@@]1(CO)CCC[C@]2(C)[C@H]3C[C@@H](O)[C@]4(C)C5=C(CC[C@H]4[C@]3(C)CC[C@@H]12)COC5=O [SESTERSTATIN 3] | 4.3 µg/mL (≈ 10.7 µM) |  | inactive | inactive | inactive | inactive
CC1(C)[C@@H](O)CC[C@]2(C)[C@H]3C[C@@H](O)[C@]4(C)C5=C(CC[C@H]4[C@]3(C)CC[C@@H]12)COC5=O [SESTERSTATIN 1] | 0.46 µg/mL (≈ 1.14 µM) |  | inactive | inactive | inactive | inactive
